Assay results published in patent publication US10280217B2, “Cell culture additives and their use for increased bioprotein production from cells” (priority 2017, dated 2019).
Where two headings read alike, the source gives them in different places.

Columns and labels:
CHO-HBS cells [1] = experiment: Batch CHO cell process in 3 L bioreactors with gaseous or dissolved candidate Additives (VCD, antibody titer, qP); format: cell-based, Chinese hamster; details: vs control; for impact on protein biomolecule production or cell growth: gas sparged into 3 L batch cultures; for antibody titer / calculated specific cellular productivity (qP) / viable cell density (VCD) / cell growth: 3 L batch cultures
Method: The following candidate gaseous and chemical additives were screened using a batch CHO cell process in a 3 L (2 L working volume) bioreactors. CHO-HBS cells were cultured in CDM4MAb media (HyClone Labaratories; Logan Utah; custom part containing base media cat# SH30801.02 supplemented with an additional 0.5 g/L poloxamer 188) in vented, plain-bottom Erlenmeyer flasks at 3-30×10^5 cells/mL. The cells were cultured for 14-16 days and then inoculated into 3 L semi-batch bioreactors at 3-4×10^5 cells/mL with 2 L working volumes. The bioreactor system monitored and controlled temperature, pH, % CO2, %02, sparge rate, and aeration rate. The bioreactors maintained a sparge rate of 0.1 vvm, 40% DO, and a pH value of 7.10. The pH was controlled by addition of CO2 or 1 N sodium bicarbonate solution. Additionally, 1 M glucose was added and adjusted daily to allow for a glucose consumption rate of 3 g/L/day. Each bioreactor was sampled daily (3-4 mL removed/day) for analysis. Gaseous additives were injected into the bioreactors using the following methods: • Inert Gas Injection (xenon): The bioreactor system controlled the flowrate and composition of oxygen, carbon dioxide, air, and nitrogen that was sparged into each bioreactor. The mixture composition was determined by the dissolved oxygen and pH levels in each reactor. House gas lines for these four gases were filtered and fed into the bioreactor mass flow control system. The effects of xenon were tested by replacing the nitrogen house gas feed with a cylinder containing xenon and replacing the air gas feed with a cylinder containing 21% oxygen and 79% xenon respectively. The system was calibrated for controlling the flowrate of the replacement gas by measuring the bioreactor mass flow controller flowrate for each gas at 12slph using a film flowmeter, then adjusting the gas correction factor for the bioreactor nitrogen or air mass flow controller until the flowrate on the film flowmeter and bioreactor system were the same. […] This allowed the CHO cells to be cultured with the maximum quantity of inert gas. • Reactive Gas Injection (nitric oxide, carbon monoxide, or hydrogen): The bioreactor module controlled the composition and flow of oxygen, air, nitrogen, and carbon dioxide gases as described previously. Reactive gases including nitric oxide, carbon monoxide, or hydrogen were introduced into the gas stream through a tee line connection before the gas mixture entered the bioreactors. The reactive gas flowrate was controlled using a mass flow controller and the flowrate of the bioreactor controlled mixture was adjusted to maintain the total gas flowrate into each reactor at 12slph.

Heme Oxygenase 1 (HO-1) = experiment: HO-1 expression in 3 L cultures (RNA-seq, Western blot); format: cell-based, Chinese hamster; details: 3 L cultures exposed to the gas, vs control
Method: (§1) Gene expression profiles were captured using RNA-seq. Conesa A, Madrigal P, Tarazona S, et al. A survey of best practices for RNA-seq data analysis. Genome Biology. 2016; 17:13. doi:10.1186/s13059-016-0881-8. RNA was extracted with a RNeasy Plus Mini kit (Qiagen) and quantified by absorbance at 260 nm with a NanoDrop 2000 (Thermo Fisher Scientific). The RNA quality was assessed using a RNA 6000 Nano Kit (Agilent) and a Bioanalyzer (Agilent). RNA was fragmented and libraries were prepared using commercial kits (TruSeq RNA Library Prep Kit v2, Illumina). RNA was sequenced on a HiSeq 2500 (Illumina) at the DNA Sequencing & Genotyping Center of the University of Delaware. Data were analyzed at the Bioinformatics Core Facility, Center for Bioinformatics and Computational Biology of the University of Delaware. As the specific genome sequence of the CHO DG44 line was not available, a Chinese Hamster genome draft was used as a reference. Genes with differential expression (false discovery rate <0.001) were further analyzed with DAVID 6.8 (https://david.ncifcrf.gov/), STRING 10.0 (http://string-db.org/) and iProXpress (http://pir.georgetown.edu/iproxpress2/).
Exemplary transcript profiles of cells on days 1, 3 and 5 of 3 L cell cultures were generated between control and gaseous NO treated cultures to perform differential gene expression analysis (FIG. 16). […]

[2] = cited from earlier work
CHO-HBS cells [3] = experiment: DETA-NO added daily to shake flask cultures (cell growth, viability); format: cell-based, Chinese hamster; details: shake flasks
Method: (§2) Cells were grown in CDM4MAb medium supplemented with poloxamer-188. Flasks were incubated on a shaker at 125 rpm in a humidified incubator at 37° C. and 5% CO2. DETA-NO was dissolved in 0.01 M sodium hydroxide solution at a 0.2 M concentration. Aliquots of DETA-NO solution were added daily to cell cultures to reach a final concentration of 0.09, 0.18 or 0.36 mM DETA-NO. Sodium hydroxide solution (0.01M) was added daily as a negative control. 0.01-1.0 mM DETA-NO release NO at a rate in the low nM/sec range (Bouton, C. and Demple, B., 2000. Nitric oxide-inducible expression of heme oxygenase-1 in human cells translation-independent stabilization of the mRNA and evidence for direct action of nitric oxide. Journal of Biological Chemistry, 275(42), pp. 32688-32693).
(§3) The effects of gaseous NO were partially recapitulated by adding NO-releasing compound DETA-NO daily to cell cultures in shake flasks. Cell growth and viability followed similar trends with addition of DETA-NO as with gaseous NO.

HO-1 = HO-1 expression in shake flask cultures; format: cell-based, Chinese hamster; details: shake flasks, vs control
Method: as §2, §3

[4] = tested on: glutathione-related enzymes (S-transferase proteins, catalases, oxidation resistance genes); experiment: Expression of glutathione-related enzymes in 3 L cultures (RNA-seq, Western blot); format: cell-based, Chinese hamster; details: gaseous NO vs control
Method: as §1
NO can oxidize intracellular molecules and thereby change the antioxidant levels within the cell, resulting in oxidative stress that potentially leads to membrane dysfunction, DNA damage and inactivation of proteins. […]

Caspase-3 = molecular target: T1, Caspase-3 (Cricetulus griseus, UniProt Q6JH80); experiment: Caspase-3 activity (EnzCheck Caspase-3 Assay Kit #1) in 3 L cultures; format: cell-based, Chinese hamster; details: 3 L cultures ± NO 300 ppm, same number of viable cells
T1 construct: endogenous in cells; host or cells: CHO-HBS cells (CHO DG44 derived), 3 L bioreactor cultures
T1 sequence (Q6JH80 29-175 limits assumed): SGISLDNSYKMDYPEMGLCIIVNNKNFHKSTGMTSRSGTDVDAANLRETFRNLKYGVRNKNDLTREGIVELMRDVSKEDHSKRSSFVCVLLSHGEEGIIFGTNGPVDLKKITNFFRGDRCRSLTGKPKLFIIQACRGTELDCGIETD
T1 sequence (Q6JH80 176-277 limits assumed): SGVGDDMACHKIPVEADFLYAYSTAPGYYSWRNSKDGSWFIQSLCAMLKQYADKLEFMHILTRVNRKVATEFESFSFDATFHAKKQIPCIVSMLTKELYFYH
From the text: The NO-specific extension of viability correlates with a decrease in Caspase-3 activity (FIG. 20). Capase-3 activity was monitored with an EnzCheck Caspase-3 Assay Kit #1 (Thermo Fisher Scientific) using samples containing the same number of viable cells. All caspase proteases contain a single cystein at the enzyme catalytic site that is essential for activity. […] Thus, the observed lower caspase-3 activity may be due to a specific blockage of the catalytic cysteine residue through formation of nitrosylthiols.

[5] = Antibody assembly by SDS-PAGE (non-reducing / reducing); format: physicochemical; details: NO-sparged vs control
From the text: In the absence of reducing agents, the pool of IgGs consists of three structures: fully assembled IgGs, IgGs missing one light chain, and IgGs missing two light chains. Variations in the proportion of the three structures depend on the production process and intrinsic properties of the IgG molecules. […] In the presence of reducing agents, the three structures collapsed into two forms of approximately 52 and 26 kDa, corresponding to the heavy and light chains, respectively. No major differences were detected between antibodies produced in NO-sparged reactors compared to controls. Byproducts with an apparent molecular mass of 25 kDa were detected on day 10. These species, which might be degradation products of light chains, seemed to be an intrinsic feature of HBS antibodies independent from the NO-based process.

[6] = Glycosylation analysis (released glycans, HILIC); format: physicochemical; details: CHO-HBS cells treated with 300 ppm NO vs control
From the text: Glycans were enzymatically released from purified IgGs, labeled with a fluorescent dye, and separated by hydrophilic interaction liquid chromatography (GlycoWorks RapiFluor-MS N-Glycan Kit, Waters). Glycans of IgGs purified from CHO-HBS cells were consistent with the typical patterns reported in the literature for proteins expressed in CHO cells. A heterogeneous population of glycans with high proportion of GOF structure followed by G1F and G2F was observed (FIG. 26).

## [Ar] [Argon]
CHO-HBS cells [1]
  impact on protein biomolecule production or cell growth: did not significantly affect

## [C-]#[O+] [Carbon Monoxide]
CHO-HBS cells [1]
  antibody titer: less impacted
  calculated specific cellular productivity (qP): higher than control
  viable cell density (VCD) / cell growth: suppressed during the growth phase, but shows higher VCD at the end of the culturing period
CHO-HBS cells [1]; net effect of VCD to qP
  overall yield from batch culture: overall smaller yield
Heme Oxygenase 1 (HO-1)
  expression of HO-1 (oxidative stress response): did not lead to an increase

## CCN(CC)/[N+]([O-])=N/O.CCNCC [DEA-NO]
[2]; buffer, pH 7.4
  half-life: 2 min

## NCCN(CCN)/[N+]([O-])=N/O [DETA-NO, diethylenetriamine-nitric oxide adduct]
CHO-HBS cells [3]; daily addition, relative to control cultures
  viable cell counts: lower at the stationary phase but increased in the late phase of the culture
CHO-HBS cells [3]; higher concentrations tested
  cell death: increased cell death
HO-1
  HO-1 expression (oxidative stress response): HO-1 up regulation
[2]; 37° C., pH 7.4
  half-life: 1200 min

## [HH] [Hydrogen]
CHO-HBS cells [1]
  impact on protein biomolecule production or cell growth: do not have a significant impact

## [Kr] [Krypton]
CHO-HBS cells [1]
  impact on protein biomolecule production or cell growth: did not significantly affect

## CNCCCCCCN(C)/[N+]([O-])=N/O [MAHMA NONOate]
[2]; 37° C., pH 7.4
  half-life: 1 min

## CC(C)N(CCCN)/[N+]([O-])=N/O [NOC-5]
[2]; PBS (pH 7.4), 22° C.
  half-life: 93 min

## O=[N+]([O-])[O-].[Na+] [Nitrate, Sodium Nitrate]
CHO-HBS cells [1]
  antibody titer: no effect
  viable cell density (VCD) / cell growth: no effect

## [N]=O [Nitric Oxide]
CHO-HBS cells [1]
  calculated specific cellular productivity (qP): boosted qP
  viable cell density (VCD) / cell growth: shifted the cell culture VCD profile
Heme Oxygenase 1 (HO-1)
  expression of HO-1 (oxidative stress response): induces expression
[4]
  expression of glutathione-related enzymes: stimulates expression
Caspase-3
  Caspase-3 activity: decrease
[5]
  overall IgG structure: did not seem to impact
[6]
  fucosylated glycans of IgGs: minor reduction

## O=NO [Nitrite, Sodium Nitrite]
CHO-HBS cells [1]
  antibody titer: no significant impact
  viable cell density (VCD) / cell growth: at most a small effect on VCD in the late phase of culture
HO-1
  HO-1 expression (oxidative stress response): does not activate

## [O]N=O [Nitrogen Dioxide]
CHO-HBS cells [1]
  antibody titer: strongly negative effect
  viable cell density (VCD) / cell growth: strongly negative effect

## CCCN(CCCN)/[N+]([O-])=N/O [PAPA NONOate]
[2]; 37° C., pH 7.4
  half-life: 15 min

## [Xe] [Xenon]
CHO-HBS cells [1]
  impact on protein biomolecule production or cell growth: do not have a significant impact

## [O-]/[N+](=N\O[C@@H]1O[C@H](CO)[C@H](O)[C@H](O)[C@H]1O)N1CCCC1 [β-Gal-NO]
[2]; pH 5.6, following activation by β-galactosidase
  half-life: six
